Reference: PubChem BioAssay AID2060912 (Molecular Pharmacology Branch, DTP, NCI, 2025)

System: HUVEC/MSC spheroids viability
Experiment: Human HUVEC/MSC cell line growth inhibition [KRAS2];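 for viability, T/C: percent of DMSO vehicle control luminescence so 100% = untreated viability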
Conditions: for IC50: curve of first compound; for viability, T/C: stronger effect = lower value
How it was run: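 The concentration series started at or near clinical Cmax (10 microM if not known) and fell in half-log increments, alone or in combination. Cells were stromal-only spheroids of pooled-donor HUVEC and hMSC (passage </=5), with different drug plates and layout from the tumor spheroid screens.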

[1] = second compound 0.0316 µM, first compound 0.0316 µM
[2] = second compound 0.0316 µM, first compound 0.1 µM
[3] = second compound 0.0316 µM, first compound 0.316 µM
[4] = second compound 0.0316 µM, first compound 1 µM
[5] = second compound 0.0316 µM, first compound 3.16 µM
[6] = second compound 0.0316 µM, first compound 10 µM
[7] = second compound 0.1 µM, first compound 0.0316 µM
[8] = second compound 0.1 µM, first compound 0.1 µM
[9] = second compound 0.1 µM, first compound 0.316 µM
[10] = second compound 0.1 µM, first compound 1 µM
[11] = second compound 0.1 µM, first compound 3.16 µM
[12] = second compound 0.1 µM, first compound 10 µM
[13] = second compound 0.316 µM, first compound 0.0316 µM
[14] = second compound 0.316 µM, first compound 0.1 µM
[15] = second compound 0.316 µM, first compound 0.316 µM
[16] = second compound 0.316 µM, first compound 1 µM
[17] = second compound 0.316 µM, first compound 3.16 µM
[18] = second compound 0.316 µM, first compound 10 µM
[19] = second compound 1 µM, first compound 0.0316 µM
[20] = second compound 1 µM, first compound 0.1 µM
[21] = second compound 1 µM, first compound 0.316 µM
[22] = second compound 1 µM, first compound 1 µM
[23] = second compound 1 µM, first compound 3.16 µM
[24] = second compound 1 µM, first compound 10 µM
[25] = second compound 3.16 µM, first compound 0.0316 µM
[26] = second compound 3.16 µM, first compound 0.1 µM
[27] = second compound 3.16 µM, first compound 0.316 µM
[28] = second compound 3.16 µM, first compound 1 µM
[29] = second compound 3.16 µM, first compound 3.16 µM
[30] = second compound 3.16 µM, first compound 10 µM
[31] = second compound 10 µM, first compound 0.0316 µM
[32] = second compound 10 µM, first compound 0.1 µM
[33] = second compound 10 µM, first compound 0.316 µM
[34] = second compound 10 µM, first compound 1 µM
[35] = second compound 10 µM, first compound 3.16 µM
[36] = second compound 10 µM, first compound 10 µM

O=C(c1cc(Cc2n[nH]c(=O)c3ccccc23)ccc1F)N1CCN(C(=O)C2CC2)CC1 + COc1cc2nc(C)nc(NC(C)c3cc(N)cc(C(F)(F)F)c3)c2cc1OC1CCOC1
IC50 (second compound 0.0316 µM): > 10 µM
IC50 (second compound 0.1 µM): > 10 µM
IC50 (second compound 0.316 µM): > 10 µM
IC50 (second compound 1 µM): > 10 µM
IC50 (second compound 3.16 µM): > 10 µM
IC50 (second compound 10 µM): > 10 µM
viability, T/C [1]: 104%
viability, T/C [2]: 108%
viability, T/C [3]: 102%
viability, T/C [4]: 94.2%
viability, T/C [5]: 89.7%
viability, T/C [6]: 99.3%
viability, T/C [7]: 108%
viability, T/C [8]: 101%
viability, T/C [9]: 90.5%
viability, T/C [10]: 89.5%
viability, T/C [11]: 90.3%
viability, T/C [12]: 83.9%
viability, T/C [13]: 93.8%
viability, T/C [14]: 92.9%
viability, T/C [15]: 101%
viability, T/C [16]: 93.8%
viability, T/C [17]: 101%
viability, T/C [18]: 115%
viability, T/C [19]: 86.5%
viability, T/C [20]: 115%
viability, T/C [21]: 93.8%
viability, T/C [22]: 88.8%
viability, T/C [23]: 89.5%
viability, T/C [24]: 93.2%
viability, T/C [25]: 75%
viability, T/C [26]: 101%
viability, T/C [27]: 93%
viability, T/C [28]: 82.2%
viability, T/C [29]: 84.8%
viability, T/C [30]: 101%
viability, T/C [31]: 72.3%
viability, T/C [32]: 76.5%
viability, T/C [33]: 79.4%
viability, T/C [34]: 68.2%
viability, T/C [35]: 77.2%
viability, T/C [36]: 63.2%

CCNC(=O)CC1N=C(c2ccc(Cl)cc2)c2cc(OC)ccc2-n2c(C)nnc21 (stereo not drawn) + C=CC(=O)N1CCN(c2nc(=O)n(-c3c(C)ccnc3C(C)C)c3nc(-c4c(O)cccc4F)c(F)cc23)C(C)C1
IC50 (second compound 0.0316 µM): > 10 µM
IC50 (second compound 0.1 µM): > 10 µM
IC50 (second compound 0.316 µM): > 10 µM
IC50 (second compound 1 µM): > 10 µM
IC50 (second compound 3.16 µM): > 10 µM
IC50 (second compound 10 µM): > 10 µM
viability, T/C [1]: 94.8%
viability, T/C [2]: 96.7%
viability, T/C [3]: 129%
viability, T/C [4]: 140%
viability, T/C [5]: 120%
viability, T/C [6]: 121%
viability, T/C [7]: 104%
viability, T/C [8]: 86.3%
viability, T/C [9]: 110%
viability, T/C [10]: 138%
viability, T/C [11]: 162%
viability, T/C [12]: 151%
viability, T/C [13]: 111%
viability, T/C [14]: 109%
viability, T/C [15]: 116%
viability, T/C [16]: 143%
viability, T/C [17]: 131%
viability, T/C [18]: 187%
viability, T/C [19]: 114%
viability, T/C [20]: 105%
viability, T/C [21]: 140%
viability, T/C [22]: 163%
viability, T/C [23]: 179%
viability, T/C [24]: 174%
viability, T/C [25]: 116%
viability, T/C [26]: 146%
viability, T/C [27]: 150%
viability, T/C [28]: 208%
viability, T/C [29]: 206%
viability, T/C [30]: 207%
viability, T/C [31]: 125%
viability, T/C [32]: 127%
viability, T/C [33]: 176%
viability, T/C [34]: 189%
viability, T/C [35]: 179%
viability, T/C [36]: 197%

COC(=O)c1ccc2c(C(=Nc3ccc(N(C)C(=O)CN4CCN(C)CC4)cc3)c3ccccc3)c(O)[nH]c2c1 + CC1OCC2(CCN(c3cnc(Sc4ccnc(N)c4Cl)c(N)n3)CC2)C1N
IC50 (second compound 0.0316 µM): 1.55 µM
IC50 (second compound 0.1 µM): 1.18 µM
IC50 (second compound 0.316 µM): 0.62 µM
IC50 (second compound 1 µM): 0.623 µM
IC50 (second compound 3.16 µM): 0.528 µM
IC50 (second compound 10 µM): 0.353 µM
viability, T/C [1]: 112%
viability, T/C [2]: 111%
viability, T/C [3]: 89.7%
viability, T/C [4]: 52.6%
viability, T/C [5]: 38.8%
viability, T/C [6]: 2.26%
viability, T/C [7]: 94.1%
viability, T/C [8]: 106%
viability, T/C [9]: 77%
viability, T/C [10]: 47.8%
viability, T/C [11]: 32%
viability, T/C [12]: 0.33%
viability, T/C [13]: 108%
viability, T/C [14]: 82%
viability, T/C [15]: 73.4%
viability, T/C [16]: 34.9%
viability, T/C [17]: 16.6%
viability, T/C [18]: 1.89%
viability, T/C [19]: 74.3%
viability, T/C [20]: 72.8%
viability, T/C [21]: 74.2%
viability, T/C [22]: 33.4%
viability, T/C [23]: 0.59%
viability, T/C [24]: 0.29%
viability, T/C [25]: 69.4%
viability, T/C [26]: 73.3%
viability, T/C [27]: 64.5%
viability, T/C [28]: 30.9%
viability, T/C [29]: 0.39%
viability, T/C [30]: 0.29%
viability, T/C [31]: 63.5%
viability, T/C [32]: 61.1%
viability, T/C [33]: 53.8%
viability, T/C [34]: 14.7%
viability, T/C [35]: 0.37%
viability, T/C [36]: 0.38%

O=C(c1cc(Cc2n[nH]c(=O)c3ccccc23)ccc1F)N1CCN(C(=O)C2CC2)CC1 + C=CC(=O)N1CCN(c2nc(OCC3CCCN3C)nc3c2CCN(c2cccc4cccc(C)c24)C3)CC1CC#N
IC50 (second compound 0.00949 µM): > 10 µM
IC50 (second compound 0.03 µM): > 10 µM
IC50 (second compound 0.0949 µM): > 10 µM
IC50 (second compound 0.3 µM): > 10 µM
IC50 (second compound 0.949 µM): > 10 µM
IC50 (second compound 3 µM): > 10 µM
viability, T/C (second compound 0.00949 µM, first compound 0.0316 µM): 80.8%
viability, T/C (second compound 0.00949 µM, first compound 0.1 µM): 101%
viability, T/C (second compound 0.00949 µM, first compound 0.316 µM): 89.4%
viability, T/C (second compound 0.00949 µM, first compound 1 µM): 82.3%
viability, T/C (second compound 0.00949 µM, first compound 3.16 µM): 80.9%
viability, T/C (second compound 0.00949 µM, first compound 10 µM): 112%
viability, T/C (second compound 0.03 µM, first compound 0.0316 µM): 78.2%
viability, T/C (second compound 0.03 µM, first compound 0.1 µM): 96.2%
viability, T/C (second compound 0.03 µM, first compound 0.316 µM): 98.7%
viability, T/C (second compound 0.03 µM, first compound 1 µM): 81.2%
viability, T/C (second compound 0.03 µM, first compound 3.16 µM): 103%
viability, T/C (second compound 0.03 µM, first compound 10 µM): 83.7%
viability, T/C (second compound 0.0949 µM, first compound 0.0316 µM): 91.8%
viability, T/C (second compound 0.0949 µM, first compound 0.1 µM): 87.8%
viability, T/C (second compound 0.0949 µM, first compound 0.316 µM): 77.2%
viability, T/C (second compound 0.0949 µM, first compound 1 µM): 101%
viability, T/C (second compound 0.0949 µM, first compound 3.16 µM): 88.4%
viability, T/C (second compound 0.0949 µM, first compound 10 µM): 100%
viability, T/C (second compound 0.3 µM, first compound 0.0316 µM): 71%
viability, T/C (second compound 0.3 µM, first compound 0.1 µM): 91.9%
viability, T/C (second compound 0.3 µM, first compound 0.316 µM): 86.1%
viability, T/C (second compound 0.3 µM, first compound 1 µM): 73.7%
viability, T/C (second compound 0.3 µM, first compound 3.16 µM): 82.8%
viability, T/C (second compound 0.3 µM, first compound 10 µM): 81.8%
viability, T/C (second compound 0.949 µM, first compound 0.0316 µM): 68.4%
viability, T/C (second compound 0.949 µM, first compound 0.1 µM): 84.9%
viability, T/C (second compound 0.949 µM, first compound 0.316 µM): 84.1%
viability, T/C (second compound 0.949 µM, first compound 1 µM): 88.8%
viability, T/C (second compound 0.949 µM, first compound 3.16 µM): 89.8%
viability, T/C (second compound 0.949 µM, first compound 10 µM): 85.2%
viability, T/C (second compound 3 µM, first compound 0.0316 µM): 91.5%
viability, T/C (second compound 3 µM, first compound 0.1 µM): 79.5%
viability, T/C (second compound 3 µM, first compound 0.316 µM): 111%
viability, T/C (second compound 3 µM, first compound 1 µM): 102%
viability, T/C (second compound 3 µM, first compound 3.16 µM): 107%
viability, T/C (second compound 3 µM, first compound 10 µM): 89.7%
